The text below walks through data of article PMC9032233, “2-{5-[(Z,2Z)-2-Chloro-3-(4-nitrophenyl)-2-propenylidene]-4-oxo-2-thioxothiazolidin-3-yl}-3-methylbutanoic Acid as a Potential Anti-Breast Cancer Molecule” (International Journal of Molecular Sciences, 2022).

Data set [1] in a line: Parallel artificial membrane permeability assay (PAMPA). In kind it is in vitro ADME. As to conditions: 200 µM in PBS pH 7.4, 5 h at RT, read-out: permeability coefficient Pe. The method, then: All in vitro assays used for the evaluation of Les-3331 ADME-Tox parameters were described previously. In brief, for the determination of permeability, Pre-coated PAMPA Plate System Gentest^TM was purchased from Corning (Tewksbury, MA, USA). […] PAMPA plates with compounds added to the donor wells were incubated for 5 h at RT. UPLC-MS Waters ACQUITY—TQD system with the TQ Detector (Waters, Milford, MI, USA) was used next for determination of compounds concentrations in donor and acceptor wells, which were required for calculation of permeability coefficient Pe according to formulas provided by the manufacturer.
For orientation: The PAMPA barrier holds no transporters, so it reflects passive diffusion.

Data set [2] deals with LC3A. Description: LC3A concentration in MCF-7 cell lysates (ELISA). The format is cell-based, human. Conditions: MCF-7, 5 mM, 24 h; control 6.726 ng/mL. How it is done: (§1) High sensitivity assay kits (EIAab Science Co., Ltd., Wuhan, China; Abcam plc., Cambridge, United Kingdom; Cloud-Clone Corp., Katy, TX, USA) were used to determine the concentrations of selected proteins in cell lysates […] In brief, after trypsinization, cells were washed thrice with cold PBS and centrifuged at 1000× g for 5 min at 4 °C. Then, cells (1.5 × 10^6) were suspended in lysis buffer for whole-cell lysates. After the second centrifugation, cellular supernatants were frozen immediately at −70 °C. Untreated cancer cells were taken as a control.
(§2) The microtiter plates provided in the kits were pre-coated with an antibody specific to the analyzed antigen. The tests were carried out according to the manufacturer’s protocols.

The subject of data set [3] is LC3A. Description: LC3A concentration in MDA-MB-231 cell lysates (ELISA). The format is cell-based, human. Conditions: MDA-MB-231, 5 mM, 24 h; control 2.965 ng/mL. The method, then:
as §1, §2

The test system of data set [4] is LC3B. Description: LC3B concentration in MCF-7 cell lysates (ELISA). In kind it is cell-based, human. Conditions: MCF-7, 5 mM, 24 h; control 1.194 ng/mL. How it is done:
as §1, §2
For orientation: In an ELISA, binding on a coated surface is turned into a signal by an enzyme label.

Data set [5] deals with LC3B. Nature of the data set: LC3B concentration in MDA-MB-231 cell lysates (ELISA). In kind it is cell-based, human. As to conditions: MDA-MB-231, 5 mM, 24 h; control 1.504 ng/mL. The method, then: as §1, §2
The test system of data set [6] is Beclin-1. Description: Beclin-1 concentration in MCF-7 cell lysates (ELISA). Conditions: 5 mM, 24 h, control 7.965 ng/mL. The format is cell-based, human. The method, then: as §1, §2
Data set [7] deals with Beclin-1. Description: Beclin-1 concentration in MDA-MB-231 cell lysates (ELISA). The arrangement: unit of the concentration uncertain. As to conditions: MDA-MB-231, 5 (unit uncertain), 24 h; control 3.605 ng/mL. In kind it is cell-based, human. The method, then: as §1, §2

With `Cn1c(=O)c2c(ncn2C)n(C)c1=O` [caffeine, reference compound], the Papp at 5 h, 200 µM in data set [1] was found to be 6.58 ×10⁻⁶ cm/s.

Consider `Cn1cnc(N)c2ncnc1-2` [3-MA, 3-Methyladenine], for which the LC3A concentration in the data set with LC3A [2] amounted to 4.423 ng/mL; in the data set with LC3A [3] it was 0.994 ng/mL. Further, the LC3B concentration came out at 0.664 ng/mL in the data set with LC3B [4] and 0.628 ng/mL with LC3B [5]. For the same molecule, the figures for the Beclin-1 concentration in the data set with Beclin-1 [6] and with Beclin-1 [7] were 6.344 ng/mL and 2.399 ng/mL, respectively.
